Assay results from the NIST ThermoML archive (doi:10.1016/j.tca.2012.01.013).

What was measured:
[1] = xn = mol fraction of the nth substance listed; conditions: 101 kPa, Liquid, Vibrating tube method
[2] = refractive index (Na D-line) (dimensionless); xn = mol fraction of the nth substance listed; conditions: 101 kPa, Liquid, Standard Abbe refractometry

COC(=O)CCCCC(=O)OC [dimethyl 1,6-hexanedioate] + CCC(C)O
Conditions | mass density, [1] [kg/m3] | refractive index, [2]
288.15 K, x1 = 0.1 | 851.006 | 1.40371
288.15 K, x1 = 0.2001 | 886.929 | 1.40787
288.15 K, x1 = 0.3 | 918.373 | 1.41161
288.15 K, x1 = 0.4 | 946.216 | 1.41507
288.15 K, x1 = 0.5003 | 971.377 | 1.41815
288.15 K, x1 = 0.6 | 994.171 | 1.42105
288.15 K, x1 = 0.6999 | 1014.77 | 1.42368
288.15 K, x1 = 0.8005 | 1033.71 | 1.42612
288.15 K, x1 = 0.8999 | 1050.86 | 1.42837
288.15 K, x1 = 1 | 1066.79 | 1.4305
293.15 K, x1 = 0.1 | 846.719 | 1.40153
293.15 K, x1 = 0.2001 | 882.468 | 1.4057
293.15 K, x1 = 0.3 | 913.786 | 1.40945
293.15 K, x1 = 0.4 | 941.538 | 1.4129
293.15 K, x1 = 0.5003 | 966.636 | 1.41602
293.15 K, x1 = 0.6 | 989.387 | 1.41891
293.15 K, x1 = 0.6999 | 1009.96 | 1.42156
293.15 K, x1 = 0.8005 | 1028.88 | 1.42403
293.15 K, x1 = 0.8999 | 1046.01 | 1.42628
293.15 K, x1 = 1 | 1061.93 | 1.42842
298.15 K, x1 = 0.1 | 842.377 | 1.39933
298.15 K, x1 = 0.2001 | 877.96 | 1.40348
298.15 K, x1 = 0.3 | 909.164 | 1.40724
298.15 K, x1 = 0.4 | 936.838 | 1.41071
298.15 K, x1 = 0.5003 | 961.876 | 1.41385
298.15 K, x1 = 0.6 | 984.59 | 1.41676
298.15 K, x1 = 0.6999 | 1005.13 | 1.41943
298.15 K, x1 = 0.8005 | 1024.03 | 1.42191
298.15 K, x1 = 0.8999 | 1041.15 | 1.4242
298.15 K, x1 = 1 | 1057.06 | 1.42636
303.15 K, x1 = 0.1 | 837.975 | 1.39709
303.15 K, x1 = 0.2001 | 873.411 | 1.40124
303.15 K, x1 = 0.3 | 904.511 | 1.405
303.15 K, x1 = 0.4 | 932.113 | 1.40851
303.15 K, x1 = 0.5003 | 957.1 | 1.41165
303.15 K, x1 = 0.6 | 979.781 | 1.4146
303.15 K, x1 = 0.6999 | 1000.3 | 1.4173
303.15 K, x1 = 0.8005 | 1019.19 | 1.41981
303.15 K, x1 = 0.8999 | 1036.29 | 1.42211
303.15 K, x1 = 1 | 1052.18 | 1.42429
308.15 K, x1 = 0.1 | 833.506 | 1.39479
308.15 K, x1 = 0.2001 | 868.81 | 1.39899
308.15 K, x1 = 0.3 | 899.82 | 1.40278
308.15 K, x1 = 0.4 | 927.355 | 1.4063
308.15 K, x1 = 0.5003 | 952.301 | 1.40948
308.15 K, x1 = 0.6 | 974.955 | 1.41244
308.15 K, x1 = 0.6999 | 995.457 | 1.41515
308.15 K, x1 = 0.8005 | 1014.33 | 1.4177
308.15 K, x1 = 0.8999 | 1031.43 | 1.42004
308.15 K, x1 = 1 | 1047.31 | 1.42222
313.15 K, x1 = 0.1 | 828.965 | 1.39245
313.15 K, x1 = 0.2001 | 864.16 | 1.39669
313.15 K, x1 = 0.3 | 895.087 | 1.40049
313.15 K, x1 = 0.4 | 922.569 | 1.40404
313.15 K, x1 = 0.5003 | 947.474 | 1.40726
313.15 K, x1 = 0.6 | 970.109 | 1.41026
313.15 K, x1 = 0.6999 | 990.598 | 1.41301
313.15 K, x1 = 0.8005 | 1009.47 | 1.41557
313.15 K, x1 = 0.8999 | 1026.55 | 1.41795
313.15 K, x1 = 1 | 1042.43 | 1.42017
318.15 K, x1 = 0.1 | 824.35 | 1.39013
318.15 K, x1 = 0.2001 | 859.451 | 1.39438
318.15 K, x1 = 0.3 | 890.312 | 1.39825
318.15 K, x1 = 0.4 | 917.75 | 1.4018
318.15 K, x1 = 0.5003 | 942.626 | 1.40503
318.15 K, x1 = 0.6 | 965.245 | 1.40808
318.15 K, x1 = 0.6999 | 985.726 | 1.41088
318.15 K, x1 = 0.8005 | 1004.59 | 1.41348
318.15 K, x1 = 0.8999 | 1021.67 | 1.41588
318.15 K, x1 = 1 | 1037.54 | 1.41819
323.15 K, x1 = 0.1 | 819.659 | 1.38776
323.15 K, x1 = 0.2001 | 854.686 | 1.39207
323.15 K, x1 = 0.3 | 885.493 | 1.39597
323.15 K, x1 = 0.4 | 912.894 | 1.39955
323.15 K, x1 = 0.5003 | 937.752 | 1.40283
323.15 K, x1 = 0.6 | 960.363 | 1.40592
323.15 K, x1 = 0.6999 | 980.838 | 1.40875
323.15 K, x1 = 0.8005 | 999.701 | 1.41138
323.15 K, x1 = 0.8999 | 1016.78 | 1.41382
323.15 K, x1 = 1 | 1032.64 | 1.41614

COC(=O)CCCCC(=O)OC [dimethyl 1,6-hexanedioate] + CCCCO
Conditions | mass density, [1] [kg/m3] | refractive index, [2]
288.15 K, x1 = 0.0999 | 854.546 | 1.40584
288.15 K, x1 = 0.2004 | 890.617 | 1.40986
288.15 K, x1 = 0.2999 | 921.957 | 1.41343
288.15 K, x1 = 0.4003 | 949.859 | 1.41668
288.15 K, x1 = 0.4999 | 974.548 | 1.41965
288.15 K, x1 = 0.6007 | 996.907 | 1.42221
288.15 K, x1 = 0.6996 | 1016.65 | 1.42454
288.15 K, x1 = 0.7994 | 1034.84 | 1.4267
288.15 K, x1 = 0.8991 | 1051.42 | 1.42867
288.15 K, x1 = 1 | 1066.79 | 1.4305
293.15 K, x1 = 0.0999 | 850.5 | 1.40378
293.15 K, x1 = 0.2004 | 886.373 | 1.40776
293.15 K, x1 = 0.2999 | 917.562 | 1.41135
293.15 K, x1 = 0.4003 | 945.34 | 1.41458
293.15 K, x1 = 0.4999 | 969.9 | 1.41754
293.15 K, x1 = 0.6007 | 992.211 | 1.4201
293.15 K, x1 = 0.6996 | 1011.89 | 1.42243
293.15 K, x1 = 0.7994 | 1030.03 | 1.4246
293.15 K, x1 = 0.8991 | 1046.58 | 1.42658
293.15 K, x1 = 1 | 1061.93 | 1.42842
298.15 K, x1 = 0.0999 | 846.433 | 1.40169
298.15 K, x1 = 0.2004 | 882.112 | 1.40568
298.15 K, x1 = 0.2999 | 913.148 | 1.40925
298.15 K, x1 = 0.4003 | 940.805 | 1.41247
298.15 K, x1 = 0.4999 | 965.3 | 1.41541
298.15 K, x1 = 0.6007 | 987.507 | 1.418
298.15 K, x1 = 0.6996 | 1007.13 | 1.42033
298.15 K, x1 = 0.7994 | 1025.22 | 1.4225
298.15 K, x1 = 0.8991 | 1041.74 | 1.42451
298.15 K, x1 = 1 | 1057.06 | 1.42636
303.15 K, x1 = 0.0999 | 842.341 | 1.39959
303.15 K, x1 = 0.2004 | 877.825 | 1.40356
303.15 K, x1 = 0.2999 | 908.714 | 1.40713
303.15 K, x1 = 0.4003 | 936.253 | 1.41033
303.15 K, x1 = 0.4999 | 960.66 | 1.41329
303.15 K, x1 = 0.6007 | 982.791 | 1.41588
303.15 K, x1 = 0.6996 | 1002.36 | 1.41823
303.15 K, x1 = 0.7994 | 1020.41 | 1.42042
303.15 K, x1 = 0.8991 | 1036.89 | 1.42242
303.15 K, x1 = 1 | 1052.18 | 1.42429
308.15 K, x1 = 0.0999 | 838.219 | 1.39746
308.15 K, x1 = 0.2004 | 873.513 | 1.40144
308.15 K, x1 = 0.2999 | 904.259 | 1.40498
308.15 K, x1 = 0.4003 | 931.684 | 1.4082
308.15 K, x1 = 0.4999 | 955.998 | 1.41109
308.15 K, x1 = 0.6007 | 978.06 | 1.41376
308.15 K, x1 = 0.6996 | 997.573 | 1.41612
308.15 K, x1 = 0.7994 | 1015.59 | 1.41832
308.15 K, x1 = 0.8991 | 1032.04 | 1.42035
308.15 K, x1 = 1 | 1047.31 | 1.42222
313.15 K, x1 = 0.0999 | 834.066 | 1.39533
313.15 K, x1 = 0.2004 | 869.172 | 1.3993
313.15 K, x1 = 0.2999 | 899.775 | 1.40285
313.15 K, x1 = 0.4003 | 927.091 | 1.40603
313.15 K, x1 = 0.4999 | 951.32 | 1.40901
313.15 K, x1 = 0.6007 | 973.316 | 1.41163
313.15 K, x1 = 0.6996 | 992.781 | 1.41402
313.15 K, x1 = 0.7994 | 1010.76 | 1.41623
313.15 K, x1 = 0.8991 | 1027.18 | 1.41828
313.15 K, x1 = 1 | 1042.43 | 1.42017
318.15 K, x1 = 0.0999 | 829.874 | 1.39323
318.15 K, x1 = 0.2004 | 864.799 | 1.39716
318.15 K, x1 = 0.2999 | 895.264 | 1.40072
318.15 K, x1 = 0.4003 | 922.473 | 1.40393
318.15 K, x1 = 0.4999 | 946.622 | 1.40688
318.15 K, x1 = 0.6007 | 968.555 | 1.40952
318.15 K, x1 = 0.6996 | 987.974 | 1.4119
318.15 K, x1 = 0.7994 | 1005.91 | 1.41415
318.15 K, x1 = 0.8991 | 1022.31 | 1.41622
318.15 K, x1 = 1 | 1037.54 | 1.41819
323.15 K, x1 = 0.0999 | 825.64 | 1.39109
323.15 K, x1 = 0.2004 | 860.391 | 1.39505
323.15 K, x1 = 0.2999 | 890.725 | 1.39859
323.15 K, x1 = 0.4003 | 917.832 | 1.40177
323.15 K, x1 = 0.4999 | 941.902 | 1.40473
323.15 K, x1 = 0.6007 | 963.778 | 1.4074
323.15 K, x1 = 0.6996 | 983.155 | 1.40981
323.15 K, x1 = 0.7994 | 1001.06 | 1.41207
323.15 K, x1 = 0.8991 | 1017.44 | 1.41416
323.15 K, x1 = 1 | 1032.64 | 1.41614
